Series [1] concerns SARS-CoV. The series can be described thus: microbe, parasite or virus in culture. To be noted: Severe acute respiratory syndrome-related coronavirus, Frankfurt1, Vero.
The test system of series [2] is SARS-CoV. In kind it is functional, organism-based. To be noted: Severe acute respiratory syndrome-related coronavirus; Frankfurt1; Vero; 50 to 70 uM.
The nature of series [3]: in vitro. To be noted: chlorocebus sabaeus, Vero E6 cells.
Series [4] concerns SARS-CoV. Type of series: functional, organism-based. To be noted: Severe acute respiratory syndrome-related coronavirus; Frankfurt1; Vero; 20 uM.
For series [5], the system named is Vero. To be noted: chlorocebus sabaeus.

Calls of active or inactive are those of the source. The calls are words filed in the database; no cut-off is given here.

One may read the IC50 as the point on the concentration scale where inhibition reaches its midpoint. Read a low IC50 as greater potency.

In turn, `OC[C@H]1O[C@@H](n2cnc3c(Cl)ncnc32)C[C@@H]1O` yielded an IC50 in series [1] above 300 µM.

For the molecule `OCC1C(COCc2ccccc2)CC1n1cnc2c(Cl)ncnc21` (stereo not given), the result in series [2] was Active. The molecule also had an IC50 in series [1] of 14.5 µM. Also, the CC50 in series [3] worked out at 78 µM.

For the molecule `COc1ncnc2c1ncn2[C@@H]1O[C@H](CO)[C@@H](O)[C@H]1O`, the IC50 in series [1] is above 300 µM.

Turning to `NC(=O)c1ncn([C@@H]2O[C@H](CO)[C@@H](O)[C@H]2O)c1O` [MIZORIBINE], the IC50 in series [1] is 13.5 µM. For the same molecule, in series [3], the CC50 is above 700 µM.

Turning to `CSc1ncnc2c1ncn2[C@@H]1O[C@H](CO)[C@@H](O)[C@H]1O`, the IC50 in series [1] was above 300 µM.

`OCC(CO)CCn1cnc2c(Cl)ncnc21`: in series [1], the IC50 was above 300 µM.

Regarding `O[C@@H]1[C@H](O)[C@@H](COCc2ccccc2)O[C@H]1n1cnc2c(Cl)ncnc21`, the outcome in series [2] was Active. The molecule further had an IC50 in series [1] of 108 µM. In series [3], this molecule had a CC50 of 174 µM.

In the case of `OC[C@H]1O[C@@H](n2cnc3c(Cl)ncnc32)[C@H](O)[C@@H]1O`, the outcome in series [4] was Active. Besides, the CC50 in series [5] is 279 µM.

`NC(=O)c1ncn([C@@H]2O[C@H](CO)[C@@H](O)[C@H]2O)n1` [RIBAVIRIN] registered an IC50 in series [1] of 82 µM. For the same molecule, the CC50 in series [3] is above 850 µM.

For `Nc1nc(Cl)c2ncn([C@@H]3O[C@H](CO)[C@@H](O)[C@H]3O)c2n1`, the IC50 in series [1] is above 300 µM.

With `OCC(CCn1cnc2c(Cl)ncnc21)COCc1ccccc1` (stereo not given), the IC50 in series [1] was above 300 µM.

Turning to `OCC1CC(n2cnc3c(Cl)ncnc32)C1CO` (stereo not given), in series [1], the IC50 was above 300 µM.

With `OC[C@@H]1C[C@@H](O)[C@H](n2cnc3c(Cl)ncnc32)O1`, the IC50 in series [1] was above 300 µM.

Source of the values: ChEMBL document CHEMBL1144631, “Synthesis and biological evaluation of nucleoside analogues having 6-chloropurine as anti-SARS-CoV agents” (Bioorg Med Chem Lett, 2007).
